Patent publication US20260286370A1, “METHODS FOR RAPID AGROBACTERIUM-MEDIATED SUNFLOWER STABLE TRANSFORMATION” (SYNGENTA CROP PROTECTION AG, priority 2023, published 2026)

Tests used:
Assay type in all cases: in vivo, Helianthus annuus
[1] = system: sunflower cotyledon explants; test: Shoot induction rate of cotyledon explants with different plant hormone (conventional process); conditions: conventional in vitro process
Procedure: The most efficient regeneration and transformation system reported using cotyledon as explants was evaluated.

sunflower explants [2] = test: Transformation efficiency with different cytokinin in germination medium (Protocol V2); conditions: variety F75400; for No. resistant shoot: hormone in germination medium: TDZ 4 mg/L (68 explants), BAP 5 mg/L (71 explants); for # of Resistant plants with GFP / Rate of resistant plants with GFP (%) / Resistant shoot rate: hormone in germination medium: TDZ 4 mg/L, BAP 5 mg/L
From the text: Adding different cytokinin into germination medium can improve shoot induction rate and TF. The resistant plantlets were generated with normal shoots and roots, which was further confirmed by visualizing green fluorescent protein expression (GFP). (Experiment alias: SF-52-SP-24545, SF-66-SP-24545, SF-81-SP-24545; variety: F75400).

sunflower explants [3] = test: Transformation frequency by selection system (aadA or ALS selectable marker); conditions: substance used as selection agent (aadA marker for spectinomycin, ALS marker for bensulfuron-methyl)
From the text: As the Examples indicate, multiple transgenic-shoot structures were induced from infected explant tissues. Then the explants were shortly selected on selection media with selection agent (7-14 days, Spectinomycin as selection agent) and transplanted into soil to allow shoot and root development under controlled conditions (in growth chamber). From multiple experiments, transgenic events were successfully generated with aadA or ALS as selectable markers (spectinomycin and bensulfuron-methyl as selection agents respectively). The transformation frequency (TF) is 8.2% for spectinomycin selection, and 3.6% for bensulfuron-methyl selection system.

sunflower explants [4] = test: Resistant frequencies with different concentration of spectinomycin in selection medium (Protocol V2); conditions: F75400
Procedure: Transformed sunflower explants was transferred onto regeneration media by inserting cotyledon with meristem region into solid medium with a selection agent. Hypocotyl was left untouching the medium. The hypocotyl was covered with sterilized matrix and put the jar in 22° C., 16/8 h light/dark. The regeneration step lasted for 7-14 days. Specifically, after co-culture, the mature seeds were placed on regeneration medium as follows: cotyledon/meristem region was inserted into solid medium with a selection agent (100 mg/L spectinomycin), the hypocotyl was left upside (the whole seeds were upside down); the container was covered with sterilized matrix (soil mixture) and placed in growth chamber for inducing shooting and rooting simultaneously under short time selection (7-14 days).
Selection medium with spectinomycin 100-800 mg/L was tested. The resistant plantlets are generated with normal shoots and roots, further confirmed by visualizing GFP. […] (Experiment alias: SF-23-SP-24545; variety: F75400).

[5] = system: sunflower explants from 1-day imbibed seeds; test: Transformation efficiency with different concentration of TDZ in infection medium (Protocol V1); conditions: for # of TaqMan Positive Events / TF: variety F75400, vector 24545
Procedure: Agrobacterium from storage at −80° C. were streaked to YP (Yeast Peptone) medium with 100 mg/L spectinomycin and 50 mg/L kanamycin at least 3 days before infection. They were re-streaked to a new YP medium plate with some concentrations of spectinomycin and kanamycin 1 day before infection. The Agrobacterium were then collected and re-suspended in infection liquid medium (containing MS basal salts and B5 vitamins, sucrose 20 g/L, glucose 10 g/L, MES, 4 g/L, zeatin riboside 2 mg/L, 3-10 mg/L TDZ, 80 mg/L acetosyringone (AS), 150 mg/L dithiothreitol (DTT), pH=5.5). The concentration of the Agrobacterium was adjusted until OD660=0.6.
One cotyledon of the split germinated seeds was removed with a scalpel to expose the shoot apex with its two primary leaves. The two primary leaves were completely removed to expose the apical meristem and the apical region was gently wounded with the sharp end of a scalpel. The resultant explants were then placed in an Agrobacterium suspension and add 1/1000 10% F68; the suspension was then placed under vacuum at 800-900-mbar for 5-30 min followed by sonication at 45 kHz for 30-60s with gentle shaking. The explants were inoculated for 2-3 hours with the Agrobacterium with 50-80 rpm shaking.
After inoculation in (3), the Agrobacterium suspension was removed, and the explants were then placed onto a piece of filter paper in a petri dish which prewetted by 0.5 ml co-cultivation media (MS basal salts and vitamins, MS iron, zeatin 1 mg/L, sucrose 10 g/L, glucose 5 g/L, MES 2 g/L, acetosyringone 20 mg/L, silver nitrate 0.5 mg/L) with the adaxial side up. One side of the filter paper was covered, and the petri dish was sealed with parafilm. Approximately 10~20 explants were placed per petri dish. The explant and Agrobacterium were co-cultured for 4 days in low-illumination condition: PAR (photosynthetically active radiation) 40 μmol m−2 s−1 with 16/8 light/dark condition. The plate containing explants was covered with a steel tray in an incubator (PERVICAL® Scientific Chambers, Perry, IA). These conditions were chosen to increase infection and prevent embryo deterioration. The explants were then co-cultured at 22° C. in the dark for 3-6 days in growth chamber.
After co-culture, the explants were transferred onto SFR1 medium for shoot regeneration (Gamborg B5 basal salts and B5 vitamins, MS Iron 200×, sucrose 20 g/L, MES 1 g/L, timentin 150 mg/L, carbenicillin 150 mg/L, agar 7.5 g/L, lipoic acid-50 mM, BAP 1 mg/L). The SFR1 medium also contained a selection agent (i.e., spectinomycin 50-150 mg/L). The explants were allowed to culture on SFR1 media in the dark at 25° C. for 3-6 days, and then grown under light (16/8 light/dark) at 25° C. for 9-14 days. FIGS. 6A-D show formation of the primary shoots with GFP expression.
Different concentrations of TDZ in the infection medium were tested to assess if TDZ concentration impacts transformation (Experiment alias: SF-52-SP-24545, SF-66-SP-24545, SF-81-SP-24545; variety: F75400). The process of transformation with explants from 1-day imbibed seeds was as described above. TDZ was added in the infection medium during the infection process for 2-4 hours. A TDZ concentration of 3-10 mg/L was used.

[6] = spectinomycin 100 mg/L in selection medium, SF23A, 89 explants
[7] = spectinomycin 200 mg/L in selection medium, SF23B, 67 explants
[8] = spectinomycin 300 mg/L in selection medium, SF23C, 61 explants
[9] = spectinomycin 500 mg/L in selection medium, SF23D, 68 explants
[10] = spectinomycin 800 mg/L in selection medium, SF23E, 70 explants
[11] = TDZ 3 mg/L in infection medium, 65 explants
[12] = TDZ 4 mg/L in infection medium, 49 explants
[13] = TDZ 8 mg/L in infection medium, 42 explants
[14] = TDZ 10 mg/L in infection medium, 37 explants

SMILES: c1ccc(CNc2ncnc3nc[nH]c23)cc1 [BAP, 6-benzylaminopurine]
- Shoot induction rate (%) [1]: 2%
- No. resistant shoot (sunflower explants [2]): 6
- # of Resistant plants with GFP (sunflower explants [2]): 5
- Rate of resistant plants with GFP (%) (sunflower explants [2]): 7%
- Resistant shoot rate (sunflower explants [2]): 8%

SMILES: CN[C@@H]1[C@H](O)[C@H](NC)[C@H]2O[C@@]3(O)C(=O)C[C@@H](C)O[C@H]3O[C@@H]2[C@H]1O [Spectinomycin, spectinomycin]
- transformation frequency (TF) (sunflower explants [3]): 8.2%
- Generation of resistant shoots (sunflower explants [4]; all spectinomycin concentrations from 100 mg/L to 800 mg/L): generated resistant shoots
- # of Resistant plants with GFP (sunflower explants [4]; [6]): 10
- Rate of resistant plants with GFP (%) (sunflower explants [4]; [6]): 11%
- Rooting rate (%) (sunflower explants [4]; [6]): 66%
- Shooting Rate (%) (sunflower explants [4]; [6]): 40%
- # of Resistant plants with GFP (sunflower explants [4]; [7]): 6
- Rate of resistant plants with GFP (%) (sunflower explants [4]; [7]): 9%
- Rooting rate (%) (sunflower explants [4]; [7]): 36%
- Shooting Rate (%) (sunflower explants [4]; [7]): 18%
- # of Resistant plants with GFP (sunflower explants [4]; [8]): 2
- Rate of resistant plants with GFP (%) (sunflower explants [4]; [8]): 3%
- Rooting rate (%) (sunflower explants [4]; [8]): 30%
- Shooting Rate (%) (sunflower explants [4]; [8]): 16%
- # of Resistant plants with GFP (sunflower explants [4]; [9]): 2
- Rate of resistant plants with GFP (%) (sunflower explants [4]; [9]): 3%
- Rooting rate (%) (sunflower explants [4]; [9]): 18%
- Shooting Rate (%) (sunflower explants [4]; [9]): 10%
- # of Resistant plants with GFP (sunflower explants [4]; [10]): 1
- Rate of resistant plants with GFP (%) (sunflower explants [4]; [10]): 1%
- Rooting rate (%) (sunflower explants [4]; [10]): 9%
- Shooting Rate (%) (sunflower explants [4]; [10]): 9%

SMILES: O=C(Nc1ccccc1)Nc1cnns1 [TDZ, 1-phenyl-3-(1,2,3-thiadiazol-5-yl)urea]
- # of TaqMan Positive Events [5, 11]: 1
- TF [5, 11]: 1.5%
- # of TaqMan Positive Events [5, 12]: 4
- TF [5, 12]: 8.2%
- # of TaqMan Positive Events [5, 13]: 3
- TF [5, 13]: 7.1%
- # of TaqMan Positive Events [5, 14]: 1
- TF [5, 14]: 2.7%
- Effect on shoot induction rate and transformation efficiency ([5]; TDZ 3-10 mg/L in infection medium for 2-4 hours): significantly improve shoot induction rate and transformation efficiency
- No. resistant shoot (sunflower explants [2]): 7
- # of Resistant plants with GFP (sunflower explants [2]): 5
- Rate of resistant plants with GFP (%) (sunflower explants [2]): 7%
- Resistant shoot rate (sunflower explants [2]): 10%

SMILES: COC(=O)c1ccccc1CS(=O)(=O)NC(=O)Nc1nc(OC)cc(OC)n1 [bensulfuron-methyl]
- transformation frequency (TF) (sunflower explants [3]): 3.6%
